Measured values as given in ChEMBL document CHEMBL1909046, “DrugMatrix in vitro pharmacology data”.

What was measured:
[1] = molecular target: Mitogen-activated protein kinase 14 (Homo sapiens, UniProt Q16539); parameters: species or system Escherichia coli;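 further: inhibition of p38alpha enzyme activity in a biochemical kinase assay, with myelin basic protein serving as substrate; in other assays of this panel Not Active means under 50% inhibition at 10 µM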
[2] = molecular target: C-C chemokine receptor type 5 (Homo sapiens, UniProt P51681); format: cell membranes, Membrane; details: hek293; further: in other assays of this panel Not Active means under 50% inhibition at 10 µM
Sequence of C-C chemokine receptor type 5 (P51681 whole entry): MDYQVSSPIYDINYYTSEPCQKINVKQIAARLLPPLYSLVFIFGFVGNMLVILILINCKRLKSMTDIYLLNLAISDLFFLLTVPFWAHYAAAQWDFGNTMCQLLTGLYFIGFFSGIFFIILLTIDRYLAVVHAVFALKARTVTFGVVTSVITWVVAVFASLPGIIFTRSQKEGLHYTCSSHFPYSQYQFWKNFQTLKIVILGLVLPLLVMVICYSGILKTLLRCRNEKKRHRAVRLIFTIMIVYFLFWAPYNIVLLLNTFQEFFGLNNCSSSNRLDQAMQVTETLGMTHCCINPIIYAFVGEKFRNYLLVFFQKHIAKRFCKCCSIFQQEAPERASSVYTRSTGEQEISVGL

[3] = molecular target: Aldo-keto reductase family 1 member B1 (Rattus norvegicus, UniProt P07943); assay: biochemical; format: tissue-based, Lens of camera-type eye;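 further: inhibition of aldose reductase enzyme activity, measured with DL-glyceraldehyde as the substrate; in other assays of this panel Not Active means under 50% inhibition at 10 µM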
[4] = molecular target: T1, Cholecystokinin receptor type A (Homo sapiens, UniProt P32238); format: cell membranes, Membrane; details: 1321-n1; further: in other assays of this panel Not Active means under 50% inhibition at 10 µM
T1 sequence (P32238 whole entry): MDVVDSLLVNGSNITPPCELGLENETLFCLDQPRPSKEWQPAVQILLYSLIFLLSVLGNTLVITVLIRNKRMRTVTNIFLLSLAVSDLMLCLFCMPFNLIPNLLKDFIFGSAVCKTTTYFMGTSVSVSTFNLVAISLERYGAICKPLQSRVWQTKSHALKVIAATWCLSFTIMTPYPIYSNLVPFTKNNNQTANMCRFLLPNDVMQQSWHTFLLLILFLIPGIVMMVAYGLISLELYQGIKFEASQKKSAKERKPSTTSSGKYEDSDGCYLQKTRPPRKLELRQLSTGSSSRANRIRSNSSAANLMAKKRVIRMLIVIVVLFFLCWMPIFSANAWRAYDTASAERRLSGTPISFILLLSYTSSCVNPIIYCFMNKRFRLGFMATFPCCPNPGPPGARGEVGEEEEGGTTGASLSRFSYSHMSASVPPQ

[5] = molecular target: Sodium-dependent dopamine transporter (Homo sapiens, UniProt Q01959); assay: DRUGMATRIX: Dopamine Transporter radioligand binding (ligand: [125I] RTI-55); format: cell membranes, CHO-K1, Membrane; details: Not Active = under 50% inhibition at 10 µM
Sequence of Sodium-dependent dopamine transporter (Q01959 whole entry): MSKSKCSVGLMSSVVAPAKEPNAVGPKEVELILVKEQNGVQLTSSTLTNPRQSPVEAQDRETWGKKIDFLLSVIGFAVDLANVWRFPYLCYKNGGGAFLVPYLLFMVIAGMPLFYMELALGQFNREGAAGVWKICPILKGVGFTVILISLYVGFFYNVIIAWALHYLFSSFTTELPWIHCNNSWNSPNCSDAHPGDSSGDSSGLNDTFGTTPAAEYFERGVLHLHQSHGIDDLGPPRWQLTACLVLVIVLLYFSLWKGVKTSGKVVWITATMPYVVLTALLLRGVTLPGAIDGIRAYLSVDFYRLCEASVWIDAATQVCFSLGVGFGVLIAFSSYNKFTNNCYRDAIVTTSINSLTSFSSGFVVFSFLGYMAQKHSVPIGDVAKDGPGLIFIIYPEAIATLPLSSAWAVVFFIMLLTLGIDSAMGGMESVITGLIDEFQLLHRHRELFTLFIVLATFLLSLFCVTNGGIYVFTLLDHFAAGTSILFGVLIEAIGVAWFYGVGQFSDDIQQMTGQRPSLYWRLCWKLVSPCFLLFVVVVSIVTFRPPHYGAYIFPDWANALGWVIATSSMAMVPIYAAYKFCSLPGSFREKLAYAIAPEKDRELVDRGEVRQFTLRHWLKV

[6] = molecular target: T2, B2 bradykinin receptor (Homo sapiens, UniProt P30411); format: cell membranes, Membrane; details: chem-1; further: in other assays of this panel Not Active means under 50% inhibition at 10 µM
T2 sequence (P30411 whole entry): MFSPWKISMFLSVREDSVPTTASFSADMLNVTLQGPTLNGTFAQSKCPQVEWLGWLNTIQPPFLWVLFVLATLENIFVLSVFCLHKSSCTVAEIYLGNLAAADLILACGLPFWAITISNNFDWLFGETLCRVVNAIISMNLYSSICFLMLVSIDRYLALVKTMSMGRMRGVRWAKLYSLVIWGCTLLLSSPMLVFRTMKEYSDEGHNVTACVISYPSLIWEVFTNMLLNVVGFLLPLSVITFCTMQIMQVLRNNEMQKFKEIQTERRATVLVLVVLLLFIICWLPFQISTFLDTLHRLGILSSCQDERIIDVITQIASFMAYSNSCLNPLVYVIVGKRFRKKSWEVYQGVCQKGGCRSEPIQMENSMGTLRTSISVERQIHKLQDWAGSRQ

[7] = DRUGMATRIX: Interleukin IL-1 radioligand binding (ligand: [125I] interleukin 1beta); format: cell membranes, Membrane; details: nih3t3; Not Active = under 50% inhibition at 10 µM

Sequence of Mitogen-activated protein kinase 14 (Q16539 whole entry): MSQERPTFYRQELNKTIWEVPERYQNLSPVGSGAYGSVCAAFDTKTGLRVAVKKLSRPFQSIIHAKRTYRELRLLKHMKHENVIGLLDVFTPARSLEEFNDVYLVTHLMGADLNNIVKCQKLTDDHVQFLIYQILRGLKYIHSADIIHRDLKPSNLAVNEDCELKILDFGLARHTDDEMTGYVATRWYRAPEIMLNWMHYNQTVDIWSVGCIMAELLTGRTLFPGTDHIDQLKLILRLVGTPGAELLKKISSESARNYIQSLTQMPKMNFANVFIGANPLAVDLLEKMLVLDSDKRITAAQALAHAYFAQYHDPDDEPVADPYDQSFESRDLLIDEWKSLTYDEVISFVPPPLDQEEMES

Molecule | IC50 [1] | IC50 [2] | IC50 [3] | IC50 [4] | IC50 ([5]; cho-k1) | IC50 [6] | IC50 [7] | Ki [7] | IC50 ([3]; read-out: IC50) [µM] | IC50 ([5]; read-out: IC50) [µM] | Ki ([5]; read-out: Ki) [µM] | Ki [1] | Ki [2] | Ki [3] | Ki [4] | Ki ([5]; cho-k1) | Ki [6]
CC1(C)O[C@@H]2C[C@H]3[C@@H]4CCC5=CC(=O)C=C[C@]5(C)[C@@]4(F)[C@@H](O)C[C@]3(C)[C@]2(C(=O)CO)O1 [TRIAMCINOLONE ACETONIDE] | Not Active | Not Active | Not Active | Not Active | Not Active | Not Active | Not Active | Not Active |  |  |  |  |  |  |  |  | 
NS(=O)(=O)c1cc2c(cc1Cl)NC(C(Cl)Cl)NS2(=O)=O (stereo unspecified) [TRICHLORMETHIAZIDE] | Not Active | Not Active | Not Active | Not Active | Not Active | Not Active | Not Active | Not Active |  |  |  |  |  |  |  |  | 
Cc1c(C)c2c(c(C)c1O)CCC(C)(COc1ccc(CC3SC(=O)NC3=O)cc1)O2 (stereo unspecified) [TROGLITAZONE] | Not Active | Not Active |  | Not Active | Not Active | Not Active | Not Active | Not Active | 2.04 |  |  |  |  |  |  |  | 
N[C@@H]1[C@H]2CN(c3nc4c(cc3F)c(=O)c(C(=O)O)cn4-c3ccc(F)cc3F)C[C@@H]12 [TROVAFLOXACIN] | Not Active | Not Active | Not Active | Not Active |  | Not Active | Not Active | Not Active |  | 62.2 | 49.4 |  |  |  |  |  | 
N#CC(C#N)=Cc1ccc(O)c(O)c1 [TYRPHOSTIN 23] | Not Active | Not Active |  | Not Active | Not Active | Not Active | Not Active | Not Active | 0.202 |  |  |  |  |  |  |  | 
CC[C@]1(O)C[C@H]2CN(CCc3c([nH]c4ccccc34)[C@@](C(=O)OC)(c3cc4c(cc3OC)N(C=O)[C@H]3[C@@](O)(C(=O)OC)[C@H](OC(C)=O)[C@]5(CC)C=CCN6CC[C@]43[C@@H]65)C2)C1 [VINCRISTINE] | Not Active | Not Active | Not Active | Not Active | Not Active | Not Active | Not Active | Not Active |  |  |  |  |  |  |  |  | 
CCCOc1ccccc1-c1nc2nn[nH]c2c(=O)[nH]1 [ZAPRINAST] | Not Active | Not Active | Not Active | Not Active | Not Active | Not Active | Not Active | Not Active |  |  |  |  |  |  |  |  | 
SODIUM NITROPRUSSIDE | Not Active | Not Active | Not Active | Not Active | Not Active | Not Active | Not Active | Not Active |  |  |  | Not Active | Not Active | Not Active | Not Active | Not Active | Not Active
